According to patent US6048894A, “Substituted amide derivatives” (Banyu Pharmaceutical Co., Ltd., priority 1996, dated 2000):

Molecular target: T1, protein-farnesyl transferase (PFT) (Rattus norvegicus, UniProt Q02293+Q04631)
T1 construct: a soluble fraction of rat's brain was fractionated; from tissue; host or cells: rat brain, soluble fraction, 30-50% ammonium sulfate cut, Q-Sepharose chromatography
Assay: Inhibitory activities against protein-farnesyl transferase (PFT), IC50
Format: biochemical
Conditions: PFT from rat brain (Q-sepharose fraction); prenyl acceptor H-ras protein or biotin-added Lys-Thr-Ser-Cys-Val-Ile-Met (not stated which for Table 1); [3H]-FPP 0.6 μM; 37° C., 20 min; read-out: 50% inhibitory concentrations against PFT activities, IC50
Protocol: PFT was separated in such a manner that a soluble fraction of rat's brain was fractionated by means of 30%-50% saturated ammonium sulfate, further dialyzed and then subjected to column chromatography by Q-sepharose™ (manufactured by Pharmacia) (Reiss et al., Cell, vol. 62, pp. 81-88 (1990)).
Measurement of PFT activities was conducted by using, as a prenyl acceptor, H-ras protein or a peptide corresponding to the C-terminal 7 amino acid residues of K-rasB protein which had biotin added to the N-terminal (biotin-added Lys-Thr-Ser-Cys-Val-Ile-Met) and, as a prenyl donor, [^3 H]-labeled farnesyl pyrophosphate (FPP) (Reiss et al., Methods: A companion to Methods in Enzymology, vol. 1, No. 3, pp. 241-245 (1990)).
The [^3 H]-labeled farnesyl pyrophosphate (22.5 Ci/mmol) was purchased from New England Nuclear Co. Non-labeled farnesyl pyrophosphate was chemically synthesized from ditrethylammonium phosphate, trans-trans-farnesol and trichloroacetonitrile and purified by a XAD-2-resin column and diethylaminoethylcellulose (Cornforth et al., Methods in Enzymology, vol. 15, pp. 385-390 (1969)). […]
The enzymatic reaction product containing H-ras protein as the prenyl acceptor, was analyzed by SDS-PAGE (sodium dodecyl sulfate/polyacrylamide gel electrophoresis). […]
The measurement of PFT activities using H-ras protein as the prenyl receptor, was also analyzed by a rapid separate method. […]

| Compound | IC50 |
| --- | --- |
| CCOC(=O)C(CC(=O)O)=C(O)C(=O)N(Cc1ccc2ccccc2c1)[C@H](C)[C@@H](Cc1ccc(C(=O)Nc2ccccc2)o1)C(=O)OC(C)C (racemic) [Example 2, 3-(ethoxycarbonyl)-4-hydroxy-4-[N-[(1RS,2RS)-2-(isopropoxycarbonyl)-1-methyl-3-{5-(phenylcarbamoyl)-2-furyl}propyl]-N-(2-naphthylmethyl)carbamoyl]-3-butenoic acid] | 3.1 nM |
| CCOC(=O)/C=C/[C@@H](Cc1ccc(C(=O)Nc2ccccc2)o1)[C@@H](C)N(Cc1ccc2ccccc2c1)C(=O)C(O)=C(CC(=O)O)C(=O)OCC (relative stereo) [Example 4] | 7.8 nM |
